Reference: ChEMBL document CHEMBL1139447, “Discovery of novel PTP1b inhibitors” (Bioorg Med Chem Lett, 2004)

Assay: Compound was tested for inhibition of Protein tyrosine phosphatase (PTP1B)

For O=c1c(O)c(-c2ccccc2)c1=O, the IC50 was 60 µM and the Kd was 25 µM.
For O=Cc1ccccn1 [2-PYRIDINECARBOXALDEHYDE], the IC50 was greater than 300 µM and the Kd was 100 µM.
With O=CCCc1ccccc1 [DIHYDROCINNAMALDEHYDE] the IC50 was greater than 300 µM and the Kd was 150 µM.
